Measurements as given in patent publication US20080187922A1 (priority 2006, published 2008).
Values after ≈ are worked out from the molar mass of the structure shown.

Test system: Mycobacterium smegmatis recombinant strains
Test: microbe, parasite or virus in culture
Type: cell-based
Conditions: Mycolicibacterium smegmatis, read-out: RFP MIC

In the case of CO[C@H]1/C=C/O[C@@]2(C)Oc3c(C)c(O)c4c(O)c(c(/C=N/N5CCN(C)CC5)c(O)c4c3C2=O)NC(=O)/C(C)=C\C=C\[C@H](C)[C@H](O)[C@@H](C)[C@@H](O)[C@@H](C)[C@H](OC(C)=O)[C@@H]1C [RFP, 3-(4-Methylpiperazinyliminomethyl)-rifamycin], the MIC is reported as 150 µg/mL (≈ 182 µM).
